{
  "source": "patent US20100179103A1",
  "about": "(priority 2008, published 2010)",
  "key": {"[1]": {"conditions": "in vivo; cited from earlier work"}, "[2]": {"system": "carrageenan paw inflammation", "experiment": "mouse carrageenan paw inflammation (paw edema) model", "assay_type": "in vivo", "conditions": "3 hours; p.o. gavage; curcumin 30 mg/kg, CDC 30 mg/kg, indomethacin 5 mg/kg; male CD-1 mice"}},
  "data": [
    {"compound": "COc1cc(/C=C/C(=O)CC(=O)/C=C/c2ccc(O)c(OC)c2)ccc1O", "note": "[curcumin, Curcumin]", "values": [
      {"measurement": "Tmax", "setting": "[1]", "result": "3 to 5", "unit": "min"},
      {"measurement": "swelling (edema: left paw thickness minus right paw thickness)", "setting": "[2]", "result": 0.66, "unit": "mm"}
    ]},
    {"compound": "COc1ccc2c(c1)c(CC(=O)O)c(C)n2C(=O)c1ccc(Cl)cc1", "note": "[indomethacin, Indomethacin]", "values": [
      {"measurement": "swelling (edema: left paw thickness minus right paw thickness)", "setting": "[2]", "result": 0.73, "unit": "mm"}
    ]}
  ]
}
